Results published in patent publication US10105357B2, “Indication of antibiotic drugs for preparation of cancer inhibition pharmaceutical composition” (LAUNX BIOMEDICAL CO., LTD., priority 2014, dated 2018).
Structures can show the parent of a compound that is named as a salt.

Tests used:
Assay type in all cases: cell-based, human
[1] = tested on: AGS (Gastric Adenocarcinoma); assay: Cell viability analysis, gastric cancer AGS; conditions: Homo sapiens, 72 h, read-out: cell viability (survival rate), AGS, drug 10 μM, 72 hours, WST-1, OD450 nm
[2] = tested on: PC3 (p53−) (Prostate Adenocarcinoma); assay: Cell viability analysis, prostate cancer PC3; conditions: Homo sapiens, 72 h, read-out: cell viability (survival rate), PC3, drug 10 μM, 72 hours, WST-1, OD450 nm
[3] = tested on: HI650 (Lung Adenocarcinoma); assay: Cell viability analysis, lung cancer HI650; conditions: Homo sapiens, NCI-H1650, 72 h, read-out: cell viability (survival rate), H1650, drug 10 μM, 72 hours, WST-1, OD450 nm
[4] = tested on: HL-60 (Acute Promyelocytic Leukemia); assay: Cell viability analysis, leukemia HL-60; conditions: Homo sapiens, HL-60, 72 h, read-out: cell viability (survival rate), HL-60, drug 10 μM, 72 hours, WST-1, OD450 nm
[5] = tested on: MCF7 (Mammary Gland, Adenocarcinoma); assay: Cell viability analysis, breast cancer MCF7; conditions: Homo sapiens, MCF7, 72 h, read-out: cell viability (survival rate), MCF7, drug 10 μM, 72 hours, WST-1, OD450 nm
[6] = tested on: A549 (Lung Adenocarcinoma); assay: Cell viability analysis, lung cancer A549; conditions: Homo sapiens, A549, 72 h, read-out: cell viability (survival rate), A549, drug 10 μM, 72 hours, WST-1, OD450 nm
[7] = tested on: MKN-45 (Gastric Adenocarcinoma); assay: Cell viability analysis, gastric cancer MKN-45; conditions: Homo sapiens, MKN-45, 72 h, read-out: cell viability (survival rate), MKN-45, drug 10 μM, 72 hours, WST-1, OD450 nm
[8] = tested on: A375 (Amelanotic Melanoma); assay: Cell viability analysis, skin cancer A375; conditions: Homo sapiens, A-375, 72 h, read-out: cell viability (survival rate), A375, drug 10 μM, 72 hours, WST-1, OD450 nm
[9] = tested on: HeLa (Cervix Adenocarcinoma); assay: Cell viability analysis, cervical cancer HeLa; conditions: Homo sapiens, HeLa, 72 h, read-out: cell viability (survival rate), HeLa, drug 10 μM, 72 hours, WST-1, OD450 nm
[10] = tested on: TSGH-8301 (Urinary Bladder Carcinoma); assay: Cell viability analysis, bladder cancer TSGH-8301; conditions: Homo sapiens, 72 h, read-out: cell viability (survival rate), TSGH, drug 10 μM, 72 hours, WST-1, OD450 nm
cancer cell lines = assay: Cell viability analysis (WST-1) on cancer cell lines; conditions: drug 10 μM, 72 hours, WST-1; Table 3
[11] = tested on: LoVo (Colorectal Adenocarcinoma); assay: Cell viability analysis, colon cancer LoVo; conditions: Homo sapiens, LoVo, 72 h, read-out: cell viability (survival rate), LoVo, drug 10 μM, 72 hours, WST-1, OD450 nm
[12] = tested on: HepG2 (Hepatocellular Carcinoma); assay: Cell viability analysis, hepatic cancer HepG2; conditions: Homo sapiens, HepG2, 72 h, read-out: cell viability (survival rate), HepG2, drug 10 μM, 72 hours, WST-1, OD450 nm

## Fc1ccc([C@@H]2CCNC[C@H]2COc2ccc3c(c2)OCO3)cc1 [Paroxetine HCl]
[1]
  viability at 10 µM: 21.5%
[2]
  viability at 10 µM: 70.6%
[3]
  viability at 10 µM: 44.1%
[4]
  viability at 10 µM: 79.1%
[5]
  viability at 10 µM: 56.4%
[6]
  viability at 10 µM: 80.1%
[7]
  viability at 10 µM: 49.2%
[8]
  viability at 10 µM: 31.9%
[9]
  viability at 10 µM: 42.1%
[10]
  viability at 10 µM: 56.4%
Cancer cell lines
  inhibition effect on different cancer cell lines: significant inhibition effect

## Nc1ccc(S(N)(=O)=O)cc1 [Sulfanilamide]
[1]
  viability at 10 µM: 65.3%
[2]
  viability at 10 µM: 111%
[3]
  viability at 10 µM: 66.7%
[4]
  viability at 10 µM: 112%
[5]
  viability at 10 µM: 105%
[11]
  viability at 10 µM: 85%
[6]
  viability at 10 µM: 82.7%
[7]
  viability at 10 µM: 59.1%
[8]
  viability at 10 µM: 84.6%
[9]
  viability at 10 µM: 82.1%
[10]
  viability at 10 µM: 76.5%
Cancer cell lines
  inhibition effect on different cancer cell lines: significant inhibition effect

## [H]/N=C(/N)NS(=O)(=O)c1ccc(N)cc1 [Sulfaguanidine]
[12]
  viability at 10 µM: 96.1%
[1]
  viability at 10 µM: 84%
[3]
  viability at 10 µM: 95.6%
[4]
  viability at 10 µM: 99.1%
[5]
  viability at 10 µM: 92.6%
[11]
  viability at 10 µM: 78.9%
[6]
  viability at 10 µM: 82.2%
[7]
  viability at 10 µM: 83.5%
[8]
  viability at 10 µM: 145%
[9]
  viability at 10 µM: 113%
[10]
  viability at 10 µM: 107%
Cancer cell lines
  inhibition effect on different cancer cell lines: significant inhibition effect

## NC[C@@H]1O[C@H](O[C@H]2[C@@H](O)[C@H](O[C@@H]3[C@@H](O)[C@H](N)C[C@H](N)[C@H]3O[C@H]3O[C@H](CO)[C@@H](O)[C@H](O)[C@H]3N)O[C@@H]2CO)[C@H](N)[C@@H](O)[C@@H]1O [Paromomycin Sulfate]
[1]
  viability at 10 µM: 80.2%
[2]
  viability at 10 µM: 146%
[3]
  viability at 10 µM: 99%
[4]
  viability at 10 µM: 87.1%
[5]
  viability at 10 µM: 112%
[11]
  viability at 10 µM: 67.1%
[6]
  viability at 10 µM: 78.2%
[7]
  viability at 10 µM: 92.1%
[8]
  viability at 10 µM: 91.4%
[9]
  viability at 10 µM: 96.2%
[10]
  viability at 10 µM: 106%
Cancer cell lines
  inhibition effect on different cancer cell lines: significant inhibition effect

## CCN1CCN(C(=O)N[C@@H](C(=O)N[C@@H]2C(=O)N3C(C(=O)O)=C(CSc4nnnn4C)CS[C@H]23)c2ccc(O)cc2)C(=O)C1=O [Cefoperazone (Cefobid), Cefoperazone]
[1]
  viability at 10 µM: 98.6%
[2]
  viability at 10 µM: 104%
[3]
  viability at 10 µM: 98.4%
[4]
  viability at 10 µM: 111%
[5]
  viability at 10 µM: 50.1%
[11]
  viability at 10 µM: 105%
[6]
  viability at 10 µM: 76.5%
[7]
  viability at 10 µM: 51.6%
[8]
  viability at 10 µM: 90%
[9]
  viability at 10 µM: 91.7%
[10]
  viability at 10 µM: 60.3%
Cancer cell lines
  inhibition effect on different cancer cell lines: significant inhibition effect

## C[C@@H](c1ncncc1F)[C@](O)(Cn1cncn1)c1ccc(F)cc1F [Voriconazole]
[1]
  viability at 10 µM: 86.1%
[2]
  viability at 10 µM: 97%
[3]
  viability at 10 µM: 102%
[4]
  viability at 10 µM: 94.3%
[5]
  viability at 10 µM: 90.1%
[6]
  viability at 10 µM: 82.9%
[7]
  viability at 10 µM: 104%
[8]
  viability at 10 µM: 102%
[9]
  viability at 10 µM: 92.6%
[10]
  viability at 10 µM: 53.9%
Cancer cell lines
  inhibition effect on different cancer cell lines: significant inhibition effect
